Consider nine molecules from patent US20240010684A1, “MASP INHIBITORY COMPOUNDS AND USES THEREOF” (BAYER AKTIENGESELLSCHAFT, priority 2020, published 2024).

A word on the IC50: it is the concentration that inhibits the measured activity by half.

The structures appear in SMILES notation. Read-outs that look alike come from different tables or passages of the source. Where a SMILES comes first, the peptide text is derived from it. Bridges are numbered along the chain shown (N, C = ends). [ ]: non-standard residue; d: D form. Oic = O=C(O)[C@@H]1C[C@@H]2CCCC[C@@H]2N1; tBuAla = CC(C)(C)C[C@H](N)C(=O)O; Pen = CC(C)(S)[C@H](N)C(=O)O; Ahx = NCCCCCC(=O)O

One assay concerns the target rat MASP1 (Rattus norvegicus (Rat), UniProt Q8CHN8). Nature of the assay: Biochemical rat MASP1 assay (FRET substrate). The source says:
A truncated cDNA sequence of rat MASP1encoding the fragment corresponding to the amino acids 302-704 with a C-terminal His Tag and N-terminal Ig-kappa secretion signal (SEQ ID No: 4) was subcloned into the mammalian expression vector pcDNA3.1 (Invitrogen).
The MASP1 or MASP2 expression vectors were transfected into the HEK293 (ATCC No. CRL-1573) cell line using Lipofectamine LTX® Reagent (Thermo-Fischer), as described by the manufacturer. The mature form of the recombinant rat MASP1 and MASP2 proteases were secreted into the culture medium. The MASP1 and MASP2 proteins were purified from the conditioned media by affinity chromatography on Ni-NTA Superflow resin (Qiagen) as described by the manufacturer.
4.2 Biochemical Rat MASP1 Assay.
Recombinant rat MASP1 enzyme produced in the HEK 293 cells was diluted in the reaction buffer (50 mM HEPES pH 8,0; 100 mM NaCl; 0,01% CHAPS; 0.5 mM Gluthathione) to the concentration of 4 nM and 25 μl was transferred into each single well of 384-well white microtiter plate (Greiner Bio One 781075). 1 μl of the inhibitor compound solution (dissolved in DMSO, at the corresponding concentration) or pure DMSO as a control was added to the same wells. The enzymatic reaction was initiated by addition of 25 μl of 40 μM solution of the FRET substrate Dabcyl-[…]-Glu(Edans)-NH2; (Dabcyl-4-((4-(dimethylamino)phenyl)azo)benzoic acid; Edans-5-[(2-Aminoethyl) amino]naphthalene-1-sulfonyl; custom synthesis by Jerini Peptide Technologies, Berlin) in the reaction buffer. The microtiter plate was incubated for 60-120 min at the temperature of 32 C. The increase of fluorescence intensity was measured in appropriate fluorescence plate reader (e.g. TECAN Ultra) using excitation wavelength of 340 nm and emission wavelength of 490 nm. IC50 values were calculated from percentage of inhibition of rat […] activity as a function of test compound concentration.

A further assay has as its target human MASP1 (Homo sapiens (Human), UniProt P48740). As to the kind of experiment: Biochemical human MASP1 assay (FRET substrate). The procedure, abridged:
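IC50 derived from % inhibition versus compound concentration, with fluorescence increase read at 320/420 nm after 60-120 min at 32 C. Enzyme: HEK293-secreted, His-tagged human MASP1 fragment 297-699 at 20 nM in HEPES pH 8,0 buffer with NaCl, CHAPS, glutathione; substrate ABZ-peptide-Lys(Dnp)-NH2 added as 20 μM solution.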

The target of the next assay is rat MASP2 (Rattus norvegicus (Rat), UniProt Q9JJS8). As to the kind of experiment: Biochemical rat MASP2 assay (FRET substrate). The source says:
The MASP1 or MASP2 expression vectors were transfected into the HEK293 (ATCC No. CRL-1573) cell line using Lipofectamine LTX® Reagent (Thermo-Fischer), as described by the manufacturer. […] The MASP1 and M[…] were purified from the conditioned media by affinity chromatography on Ni-NTA Superflow resin (Qiagen) as described by the manufacturer.

Another assay has as its target human MASP2 (Homo sapiens (Human), UniProt O00187). As to the kind of experiment: Biochemical human MASP2 assay (FRET substrate). Put shortly: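 IC50 came from % inhibition across compound concentrations, with fluorescence (ex 340 nm, em 490 nm) read after 60-120 min at 32 C. Substrate was a DABCYL FRET peptide, added as a 60 μM solution, cleaved by HEK293-expressed, Ni-NTA-purified mature recombinant human MASP2.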

Assay [1] concerns Human C3-DEPOSITION SERUM. As to the kind of experiment: C3 deposition assay, human serum on mannan-coated plates. Type of assay: biochemical. Put shortly:
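Plates coated overnight at 4° C with S. cerevisiae mannan (10 μg/mL, pH 9.6), blocked with 1% BSA in TBS 2 h at 37° C; washes in TBS/0.05% Tween 20/5 mM CaCl2. Antibodies diluted in wash buffer with 0.5% BSA. Colorimetric read-out at 450 nm.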

Setting [2] is: Average IC50, recombinant rat MASP1, read-out: rat MASP1 IC50.
Setting [3] is: Average IC50, recombinant human MASP1, read-out: human MASP1 IC50.
Where [4] appears, read: Average IC50, recombinant rat MASP2, read-out: rat MASP2 IC50.
Setting [5] is: Average IC50, recombinant human MASP2, read-out: human MASP2 IC50.

rat MASP2, sequence (Q9JJS8 other isoform, or with tags, fused parts or gaps): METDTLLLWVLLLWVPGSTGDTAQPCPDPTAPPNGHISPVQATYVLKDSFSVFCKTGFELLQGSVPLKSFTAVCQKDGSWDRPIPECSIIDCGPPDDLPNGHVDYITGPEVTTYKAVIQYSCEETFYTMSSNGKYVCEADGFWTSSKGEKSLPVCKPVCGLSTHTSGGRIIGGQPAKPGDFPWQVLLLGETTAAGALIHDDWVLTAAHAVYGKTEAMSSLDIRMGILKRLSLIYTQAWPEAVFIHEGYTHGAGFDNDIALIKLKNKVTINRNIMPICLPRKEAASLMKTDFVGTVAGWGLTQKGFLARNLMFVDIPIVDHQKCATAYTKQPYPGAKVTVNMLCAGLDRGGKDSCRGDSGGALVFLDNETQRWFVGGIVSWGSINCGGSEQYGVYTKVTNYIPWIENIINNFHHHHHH
human MASP1, sequence (P48740 other isoform, or with tags, fused parts or gaps): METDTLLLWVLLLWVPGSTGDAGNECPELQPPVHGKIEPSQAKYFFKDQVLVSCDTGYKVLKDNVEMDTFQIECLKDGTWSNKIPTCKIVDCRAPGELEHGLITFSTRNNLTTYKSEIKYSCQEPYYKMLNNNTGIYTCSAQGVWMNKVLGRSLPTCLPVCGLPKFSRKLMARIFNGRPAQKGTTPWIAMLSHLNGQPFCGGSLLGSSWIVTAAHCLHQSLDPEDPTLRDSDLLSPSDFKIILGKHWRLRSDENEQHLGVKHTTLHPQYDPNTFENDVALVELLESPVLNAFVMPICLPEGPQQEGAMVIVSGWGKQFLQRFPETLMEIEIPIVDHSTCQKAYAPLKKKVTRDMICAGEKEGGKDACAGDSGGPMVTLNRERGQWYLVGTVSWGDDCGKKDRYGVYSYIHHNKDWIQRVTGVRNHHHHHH
rat MASP1, sequence (Q8CHN8 other isoform, or with tags, fused parts or gaps): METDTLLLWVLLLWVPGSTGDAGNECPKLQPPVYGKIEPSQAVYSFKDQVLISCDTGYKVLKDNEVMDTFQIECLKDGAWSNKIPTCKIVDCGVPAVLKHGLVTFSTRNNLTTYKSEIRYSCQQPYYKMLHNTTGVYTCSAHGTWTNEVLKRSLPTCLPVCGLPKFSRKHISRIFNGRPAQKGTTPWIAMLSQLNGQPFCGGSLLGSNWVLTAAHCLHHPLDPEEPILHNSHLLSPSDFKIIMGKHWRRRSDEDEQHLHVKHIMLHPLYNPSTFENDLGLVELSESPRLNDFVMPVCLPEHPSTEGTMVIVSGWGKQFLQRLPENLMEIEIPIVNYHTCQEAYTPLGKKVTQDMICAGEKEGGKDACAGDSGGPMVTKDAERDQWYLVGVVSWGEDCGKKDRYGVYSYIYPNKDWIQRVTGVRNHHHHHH
human MASP2, sequence (O00187 other isoform, or with tags, fused parts or gaps): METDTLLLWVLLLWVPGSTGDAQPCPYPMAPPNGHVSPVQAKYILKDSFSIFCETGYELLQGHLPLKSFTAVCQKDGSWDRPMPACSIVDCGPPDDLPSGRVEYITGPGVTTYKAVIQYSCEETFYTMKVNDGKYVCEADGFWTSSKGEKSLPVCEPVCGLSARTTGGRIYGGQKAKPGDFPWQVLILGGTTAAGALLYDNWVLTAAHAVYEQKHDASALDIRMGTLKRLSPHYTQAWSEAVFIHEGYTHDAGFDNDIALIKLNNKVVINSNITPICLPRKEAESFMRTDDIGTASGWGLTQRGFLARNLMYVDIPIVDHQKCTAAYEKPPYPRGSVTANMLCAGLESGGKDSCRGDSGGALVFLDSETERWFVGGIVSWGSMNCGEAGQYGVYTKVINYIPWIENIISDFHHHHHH

With `CC[C@H](C)[C@@H]1NC(=O)CNC(=O)CCCCCNC(=O)[C@H](CC(=O)O)NC(=O)[C@@H]2CCCN2C(=O)[C@H]([C@@H](C)CC)NC(=O)[C@H]2NC(=O)[C@H]([C@@H](C)CC)NC(=O)[C@@H]3CCCN3C(=O)[C@@H]3CCCN3C(=O)[C@H](CC(C)(C)C)NC(=O)[C@H](CO)NC(=O)[C@H](CCCNC(=N)N)NC(=O)[C@H](CO)NC(=O)[C@H](CSSC2(C)C)NC1=O` [Example 28] (cyclo([Ahx]GICSRS[tBuAla]PPI[Pen]IPD); disulfide 4-12), the IC50 is 79 nM on rat MASP1 (setting [2]), 19 nM on human MASP1 (setting [3]), 16 nM on rat MASP2 (setting [4]) and 29 nM on human MASP2 (setting [5]).
Take `CC[C@H](C)[C@@H]1NC(=O)[C@@H]2CCCN2C(=O)[C@@H]2CCCN2C(=O)[C@H](CC(C)(C)C)NC(=O)[C@H](CO)NC(=O)[C@H](CCCNC(=N)N)NC(=O)[C@H](CO)NC(=O)[C@@H]2CSSC(C)(C)[C@H](NC1=O)C(=O)N[C@@H]([C@@H](C)CC)C(=O)N1CCC[C@H]1C(=O)NCCCCCC(=O)NC[C@H]1CC[C@@H](CC1)C(=O)N[C@@H]([C@@H](C)CC)C(=O)N2` [Example 59, N-{3-[(1R,4S,7S,13S,19S,22S,25S,28S,31R,34S,37S,40S,51S,57S)-4,34,57-tri[(2S)-butan-2-yl]-19-(2,2-dimethylpropyl)-22,28-bis(hydroxymethyl)-60,60-dimethyl-3,6,12,18,21,24,27,30,33,36,43,50,56,59-tetradecaoxo-61,62-dithia-2,5,11,17,20,23,26,29,32,35,42,49,55,58-tetradecaazahexacyclo[29.28.4.2^37,400.0^7,110.0^13,170.0^51,55]pentahexacontan-25-yl]propyl}guanidine]: the IC50 is 48.6 nM on rat MASP1 (setting [2]); 177 nM in assay [1] (Average IC50, read-out: Human C3-[…] IC50); 11 nM at human MASP1 (setting [3]); 5.7 nM at human MASP2 (setting [5]).
Regarding `CC[C@H](C)[C@@H]1NC(=O)c2ccc(cc2)CNC(=O)CCCCCNC(=O)[C@@H]2CCCN2C(=O)[C@H]([C@@H](C)CC)NC(=O)[C@H]2NC(=O)[C@H]([C@@H](C)CC)NC(=O)[C@@H]3CCCN3C(=O)[C@@H]3CCCN3C(=O)[C@H](CC(C)(C)C)NC(=O)[C@H](CO)NC(=O)[C@H](CCCNC(=N)N)NC(=O)[C@H](CO)NC(=O)[C@H](CSSC2(C)C)NC1=O` [Example 68, N-{3-[(1R,4S,7S,13S,19S,22S,25S,28S,31R,34S,51S,57S)-4,34,57-tri[(2S)-butan-2-yl]-19-(2,2-dimethylpropyl)-22,28-bis(hydroxymethyl)-60,60-dimethyl-3,6,12,18,21,24,27,30,33,36,43,50,56,59-tetradecaoxo-61,62-dithia-2,5,11,17,20,23,26,29,32,35,42,49,55,58-tetradecaazahexacyclo[29.28.4.2^37,400.0^7,110.0^13,170.0^51,55]pentahexaconta-37,39,64-trien-25-yl]propyl}guanidine], the concentration for half-maximal inhibition (IC50) was 30.8 nM at rat MASP1, 6.1 nM on human MASP1, 2.97 nM at rat MASP2 and 2.57 nM against human MASP2.
As to `CC[C@H](C)[C@@H]1NC(=O)[C@H](C)NC(=O)CCCCCNC(=O)[C@H]([C@@H](C)CC)NC(=O)[C@H]2NC(=O)[C@H]([C@@H](C)CC)NC(=O)[C@@H]3CCCN3C(=O)[C@@H]3CCCN3C(=O)[C@H](CC(C)(C)C)NC(=O)[C@H](CO)NC(=O)[C@H](CCCNC(=N)N)NC(=O)[C@H](CO)NC(=O)[C@H](CSSC2(C)C)NC1=O` [Example 72, N-{3-[(5aS,11S,14S,17S,20S,23R,26S,29S,39S,42R,45S,47aS)-26,39,45-tri[(2S)-butan-2-yl]-11-(2,2-dimethylpropyl)-14,20-bis(hydroxymethyl)-29,48,48-trimethyl-5,10,13,16,19,22,25,28,31,38,41,44,47-tridecaoxohexatetracontahydro-5H-23,42-(methanodithiomethano)dipyrrolo[2,1-1:2′,1′-o][1,4,7,10,13,16,19,22,25,28,31,34,37]tridecaazacyclotritetracontin-17-yl]propyl}guanidine] (cyclo(AICSRS[tBuAla]PPI[Pen]I[Ahx]); disulfide 3-11), the IC50 at rat MASP1 (setting [2]) turned out to be 85 nM; at human MASP1 (setting [3]) it was 6.3 nM; at rat MASP2 (setting [4]) it was 14 nM; on human MASP2 (setting [5]), 48 nM.
The corresponding values for `CC[C@H](C)[C@@H]1NC(=O)CCCCCNC(=O)CC[C@@H](C(N)=O)NC(=O)[C@@H]2CCCN2C(=O)[C@H]([C@@H](C)CC)NC(=O)[C@H]2NC(=O)[C@H]([C@@H](C)CC)NC(=O)[C@@H]3C[C@@H]4CCCC[C@@H]4N3C(=O)[C@@H]3CCCN3C(=O)[C@H](CC(C)C)NC(=O)[C@H](CO)NC(=O)[C@H](CCCNC(=N)N)NC(=O)[C@H](CO)NC(=O)[C@H](CSSC2(C)C)NC1=O` [Example 75] ([Ahx]ICSRSLP[Oic]I[Pen]IPE-NH2; disulfide 3-11; lactam N-14) are 27 nM, 7.2 nM, 1.4 nM and 14 nM.
On to `CC[C@H](C)[C@@H]1NC(=O)[C@H](CN)NC(=O)[C@H](CN)NC(=O)[C@@H]2CCCN2C(=O)[C@H]([C@@H](C)CC)NC(=O)[C@H]2NC(=O)[C@H]([C@@H](C)CC)NC(=O)[C@@H]3CCCN3C(=O)[C@@H]3CCCN3C(=O)[C@H](CC(C)(C)C)NC(=O)[C@H](CO)NC(=O)[C@H](CCCNC(=N)N)NC(=O)[C@H](CO)NC(=O)[C@H](CSSC2(C)C)NC1=O` [Example 97], for which the IC50 in assay [1] (Average IC50, read-out: Human C3-DEPOSITION SERUM IC50) was determined as 56.4 nM; on human MASP1 (setting [3]) it was 5 nM; at human MASP2 (setting [5]), 760 nM.
As to `CC[C@H](C)[C@@H]1NC(=O)CNC(=O)[C@H](CC(=O)O)NC(=O)[C@@H]2CCCN2C(=O)[C@H]([C@@H](C)CC)NC(=O)[C@@H]2CSSC[C@H](NC1=O)C(=O)N[C@@H](CO)C(=O)N[C@@H](CCCNC(=N)N)C(=O)N[C@@H](CO)C(=O)N[C@@H](CC(C)C)C(=O)N1CCC[C@H]1C(=O)N1CCC[C@H]1C(=O)N[C@@H]([C@@H](C)CC)C(=O)N2` [Ref. No 7, reference compound] (cyclo(CIPDGICSRSLPPI); disulfide 1-7), the IC50 on rat MASP1 (setting [2]) amounted to 1000 nM; at human MASP1 (setting [3]) it was 145 nM; at rat MASP2 (setting [4]), 232 nM; on human MASP2 (setting [5]), 895 nM.
In the case of `CC[C@H](C)[C@@H]1NC(=O)[C@@H]2CSSC[C@H](NC(=O)[C@H](Cc3ccc(O)cc3)NC(=O)CNC(=O)[C@H](CC(=O)O)NC(=O)[C@@H]3CCCN3C1=O)C(=O)N[C@@H](CO)C(=O)N[C@@H](CCCNC(=N)N)C(=O)N[C@@H](CO)C(=O)N[C@@H](Cc1ccc(O)cc1)C(=O)N1CCC[C@H]1C(=O)N1CCC[C@H]1C(=O)N[C@@H](C(C)C)C(=O)N2` [Ref. No 8, reference compound] (cyclo(CIPDGYCSRSYPPV); disulfide 1-7), the 50% inhibitory concentration (IC50) is 1000 nM on rat MASP1 (setting [2]), 8130 nM on human MASP1 (setting [3]) and 126 nM at rat MASP2 (setting [4]).
Turning to `CC[C@H](C)[C@@H]1NC(=O)[C@@H]2CCCN2C(=O)[C@@H]2CCCN2C(=O)[C@H]([C@@H](C)CC)NC(=O)[C@@H]2CSSC[C@H](NC(=O)[C@H]([C@@H](C)O)NC(=O)[C@H](CCCCN)NC(=O)[C@H](CO)NC1=O)C(=O)N[C@@H](CCCNC(=N)N)C(=O)NCC(=O)N[C@@H](CC(=O)O)C(=O)N1CCC[C@H]1C(=O)N[C@@H](Cc1ccccc1)C(=O)N2` [Ref. No 12, reference compound] (cyclo(RGDPFCIPPISKTC); disulfide 6-14), the IC50 was 1000 nM on rat MASP1 (setting [2]), 4800 nM at human MASP1 (setting [3]), 1000 nM at rat MASP2 (setting [4]) and 5000 nM on human MASP2 (setting [5]).
